Data: US20240124465A1, “MOLECULES AND METHODS RELATED TO TREATMENT OF DISORDERS ASSOCIATED WITH JAK-2 SIGNALING DYSFUNCTION” (ST. JUDE CHILDREN'S RESEARCH HOSPITAL, priority 2020, published 2024)

Columns and labels:
Type in all cases: cell-based
MHH-CALL-4 cells = experiment: Cytotoxicity assay (resazurin, 72 hours); parameters: AUC: unit not given beside the values; details: for EC50: MHHCALL4, resazurin; for AUC: area under the dose-response curve
Procedure: Cytotoxicity assay: MHH-CALL-4 cells were maintained in RPMI1640 medium (Invitrogen) supplemented with 10% FBS (Hyclone), Penicillin/Streptomycin (100 units/mL) and Glutamine (100 μM). 2×10^5 cells were seeded in 100 μl medium/well in 96 well assay plates (Corning 3603). Assays were performed in triplicate; compounds to be screened were added to assay plates from DMSO stock solutions by pin transfer using 50SS pins (V&P Scientific). The assay plates incubated at 37° C. in 5% CO2 for 72 hours. Cells were then incubated for four hours with resazurin (Sigma) solution and read on a Synergy HT plate reader (Biotek, Winooski, VT). High-throughput assay data was analyzed using our in-house Robust Interpretation of Screening Experiments (RISE) application written in Pipeline Pilot (Biovia, v. 17.2.0) and the R program (R Core Team, 2013). All the AUC (area under the dose-response curve) per compound calculated from its dose response curve by RISE protocol. Selected data were plotted and analyzed by GraphPad Prism software v7 using non-linear regression curve fitting.

JAK1 = molecular target: T1, JAK1 (Homo sapiens, UniProt P23458); experiment: Western blot assay, JAK1 protein degradation; details: MHH-CALL-4 cells, vehicle control = 100%
T1 construct: endogenous in cells; host or cells: MHH-CALL-4
Procedure: (§1) Western blot assay: MHH-CALL-4 Cells were washed twice with ice-cold PBS and lysed in RIPA lysis buffer (Sigma) freshly supplemented with Halt™ Protease Inhibitor Cocktail (ThermoFisher) for 15 minutes on ice. The cell pellet was removed by centrifugation at 13,000 g at 4° C. for 15 minutes. Protein concentration was measured by BCA assay (Thermo Fisher Scientific). Proteins were denatured in NuPAGE LDS 4× sample buffer supplemented with reducing agents (Invitrogen). Typically, 10-20 μg of total protein was loaded per lane on a 4%-12% NUPAGE Bis-Tris gradient gel (Invitrogen) and analyzed by standard immunoblotting and imaged using Li—COR Odyssey CLx (LI-COR Biotechnology, Lincoln, NE). To access the protein degradation, the signal of target protein was normalized by the signal of ACBT and the signal of vehicle control was set as 100%. Primary antibodies used were: JAK1 (Cell Signaling #3332S), JAK2 (#3230S), JAK3 (#8827S), TYK2 (#9312S), GSPT1 (#14980S), CRBN (#71810S), IKZF1 (Santa Cruz Biotechnology, SC-398265) and ACBT (Santa Cruz Biotechnology, SC-47778).

JAK3 = molecular target: T2, JAK3 (Homo sapiens, UniProt P52333); experiment: Western blot assay, JAK3 protein degradation; details: MHHCALL4; 100 nM, 24 h; MHH-CALL-4 cells; vehicle control = 100%; read-out: Target Protein Degradation (% remaining at 100 nM, 24 h) JAK3
T2 construct: endogenous in cells; host or cells: MHH-CALL-4
T2 sequence (P52333 1-1124): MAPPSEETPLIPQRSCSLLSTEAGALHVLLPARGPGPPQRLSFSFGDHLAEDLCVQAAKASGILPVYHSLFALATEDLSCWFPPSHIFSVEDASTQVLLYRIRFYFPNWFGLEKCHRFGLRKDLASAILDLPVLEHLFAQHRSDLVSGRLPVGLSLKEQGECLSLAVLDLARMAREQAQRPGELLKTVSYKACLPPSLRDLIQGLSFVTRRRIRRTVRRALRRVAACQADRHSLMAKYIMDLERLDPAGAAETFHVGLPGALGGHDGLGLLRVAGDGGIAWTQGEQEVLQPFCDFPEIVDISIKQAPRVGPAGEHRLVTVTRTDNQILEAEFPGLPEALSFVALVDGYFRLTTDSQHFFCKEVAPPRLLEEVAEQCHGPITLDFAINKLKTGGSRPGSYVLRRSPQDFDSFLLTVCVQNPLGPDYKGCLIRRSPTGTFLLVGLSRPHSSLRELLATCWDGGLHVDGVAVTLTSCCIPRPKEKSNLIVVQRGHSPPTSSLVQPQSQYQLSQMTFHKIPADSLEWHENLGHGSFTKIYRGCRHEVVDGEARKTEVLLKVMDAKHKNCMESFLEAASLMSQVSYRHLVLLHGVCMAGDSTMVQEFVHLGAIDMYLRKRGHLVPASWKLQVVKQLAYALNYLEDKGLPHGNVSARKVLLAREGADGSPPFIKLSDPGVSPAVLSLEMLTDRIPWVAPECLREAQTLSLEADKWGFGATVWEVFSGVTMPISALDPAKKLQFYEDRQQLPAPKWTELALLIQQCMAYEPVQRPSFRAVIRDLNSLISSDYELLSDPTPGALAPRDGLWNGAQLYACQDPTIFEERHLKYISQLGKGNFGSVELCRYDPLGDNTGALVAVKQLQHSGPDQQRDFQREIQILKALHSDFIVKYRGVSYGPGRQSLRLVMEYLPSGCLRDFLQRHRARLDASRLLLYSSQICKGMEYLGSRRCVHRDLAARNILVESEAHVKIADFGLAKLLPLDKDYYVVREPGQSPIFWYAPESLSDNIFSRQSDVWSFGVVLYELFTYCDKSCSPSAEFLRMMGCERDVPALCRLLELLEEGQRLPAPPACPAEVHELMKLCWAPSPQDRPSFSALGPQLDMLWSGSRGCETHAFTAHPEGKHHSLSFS
Procedure: as §1

GSPT1 = molecular target: T3, GSPT1 (Homo sapiens, UniProt P15170); experiment: Western blot assay, GSPT1 neosubstrate degradation; details: MHHCALL4; 100 nM, 24 h; MHH-CALL-4 cells; vehicle control = 100%
T3 construct: endogenous in cells; host or cells: MHH-CALL-4
Procedure: as §1

JAK2 = experiment: Western blot assay, JAK2 protein degradation; details: MHH-CALL-4 cells, vehicle control = 100%
Procedure: as §1

T3 sequence (P15170 whole entry): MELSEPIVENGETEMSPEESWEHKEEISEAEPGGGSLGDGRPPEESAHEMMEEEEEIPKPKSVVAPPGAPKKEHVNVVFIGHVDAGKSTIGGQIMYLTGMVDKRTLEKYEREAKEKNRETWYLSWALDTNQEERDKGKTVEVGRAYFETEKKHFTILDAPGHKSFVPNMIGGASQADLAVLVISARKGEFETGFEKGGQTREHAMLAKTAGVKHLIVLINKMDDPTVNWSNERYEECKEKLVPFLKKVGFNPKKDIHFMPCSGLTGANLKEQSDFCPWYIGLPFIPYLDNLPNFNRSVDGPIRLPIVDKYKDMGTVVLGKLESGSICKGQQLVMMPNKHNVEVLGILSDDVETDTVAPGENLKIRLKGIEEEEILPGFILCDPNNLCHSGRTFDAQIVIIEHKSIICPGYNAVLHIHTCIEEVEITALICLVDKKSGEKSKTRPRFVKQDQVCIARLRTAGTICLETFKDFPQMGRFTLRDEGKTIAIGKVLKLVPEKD
T1 sequence (P23458 whole entry): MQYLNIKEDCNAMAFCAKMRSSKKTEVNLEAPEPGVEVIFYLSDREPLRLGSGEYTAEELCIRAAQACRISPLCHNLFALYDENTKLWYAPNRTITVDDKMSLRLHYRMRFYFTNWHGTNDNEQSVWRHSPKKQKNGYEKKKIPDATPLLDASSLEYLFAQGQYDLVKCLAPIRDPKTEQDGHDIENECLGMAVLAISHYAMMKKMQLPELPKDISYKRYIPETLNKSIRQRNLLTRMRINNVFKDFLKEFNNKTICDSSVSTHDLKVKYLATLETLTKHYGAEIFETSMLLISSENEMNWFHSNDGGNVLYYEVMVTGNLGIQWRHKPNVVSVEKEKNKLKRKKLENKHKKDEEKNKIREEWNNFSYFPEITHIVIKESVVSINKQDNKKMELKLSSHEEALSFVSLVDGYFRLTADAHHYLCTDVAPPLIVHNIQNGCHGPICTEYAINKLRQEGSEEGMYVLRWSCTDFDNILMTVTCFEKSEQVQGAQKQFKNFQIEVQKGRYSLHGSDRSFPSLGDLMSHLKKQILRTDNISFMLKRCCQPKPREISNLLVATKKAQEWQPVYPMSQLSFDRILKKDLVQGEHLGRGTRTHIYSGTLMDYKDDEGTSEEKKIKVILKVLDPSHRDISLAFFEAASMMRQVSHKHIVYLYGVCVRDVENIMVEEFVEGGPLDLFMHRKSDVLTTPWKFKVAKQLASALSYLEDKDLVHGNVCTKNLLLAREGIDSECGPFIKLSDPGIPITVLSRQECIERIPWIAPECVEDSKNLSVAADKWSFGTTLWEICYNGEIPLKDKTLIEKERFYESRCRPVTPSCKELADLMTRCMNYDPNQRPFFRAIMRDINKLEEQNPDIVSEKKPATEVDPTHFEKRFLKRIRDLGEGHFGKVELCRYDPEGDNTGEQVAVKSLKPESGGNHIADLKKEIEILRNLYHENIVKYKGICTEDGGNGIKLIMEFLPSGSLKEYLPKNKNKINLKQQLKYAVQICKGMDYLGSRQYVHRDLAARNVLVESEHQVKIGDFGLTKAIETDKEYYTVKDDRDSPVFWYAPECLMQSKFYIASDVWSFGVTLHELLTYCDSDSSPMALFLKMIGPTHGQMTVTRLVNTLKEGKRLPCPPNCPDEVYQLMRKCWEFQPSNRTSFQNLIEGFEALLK

Q: What does the source list for `N#CC[C@@H](C1CCCC1)n1cc(-c2nc(Nc3ccc(C(=O)NCCCN4CCN(c5ccc6c(c5)C(=O)N(C5CCC(=O)NC5=O)C6=O)CC4)cc3)nc3[nH]ccc23)cn1` (stereo partly drawn) [Compound 23]?
A: EC50 (MHH-CALL-4 cells): 30.9 nM; AUC (MHH-CALL-4 cells): 79; Target Protein Degradation (% remaining at 100 nM, 24 h) JAK1 (JAK1): 145 % remaining; remaining activity at 0.1 µM (JAK3): 109%; remaining activity at 0.1 µM (GSPT1): 155%; Target Protein Degradation (% remaining at 100 nM, 24 h) JAK2 (JAK2): 67 % remaining

Q: How did the EC50 (MHH-CALL-4 cells) turn out when `CCS(=O)(=O)C1CC(CC#N)(n2cc(-c3nc(Nc4ccc(C(=O)N5CCC(c6ccc7c(c6)C(=O)N(C6CCC(=O)NC6=O)C7=O)CC5)cc4)nc4[nH]ccc34)cn2)C1` (stereo not drawn) [Compound 27] was run?
A: 289 nM

Q: And the AUC (MHH-CALL-4 cells)?
A: 143

Q: And the “Target Protein Degradation (% remaining at 100 nM, 24 h) JAK1” value (JAK1)?
A: 107 % remaining

Q: And the remaining activity at 0.1 µM (JAK3)?
A: 92%

Q: What about the remaining activity at 0.1 µM (GSPT1) of the same molecule?
A: 118%

Q: What about the “Target Protein Degradation (% remaining at 100 nM, 24 h) JAK2” value (JAK2) of the same molecule?
A: 68 % remaining

Q: What does the source list for `CCS(=O)(=O)N1CC(CC#N)(n2cc(-c3nc(Nc4ccc(C(=O)NCCCN5CCC(c6ccc7c(c6)CN(C6CCC(=O)NC6=O)C7=O)CC5)cc4)nc4[nH]ccc34)cn2)C1` (stereo not drawn) [Compound 28]?
A: EC50 (MHH-CALL-4 cells): 16.8 nM; AUC (MHH-CALL-4 cells): 223.00; Target Protein Degradation (% remaining at 100 nM, 24 h) JAK1 (JAK1): 112 % remaining; remaining activity at 0.1 µM (JAK3): 97%; remaining activity at 0.1 µM (GSPT1): 127%; Target Protein Degradation (% remaining at 100 nM, 24 h) JAK2 (JAK2): 83 % remaining

Q: How did the EC50 (MHH-CALL-4 cells) turn out when `CCS(=O)(=O)C1CC(CC#N)(n2cc(-c3nc(Nc4ccc(C(=O)NC5CCN(c6ccc7c(c6)C(=O)N(C6CCC(=O)NC6=O)C7=O)CC5)cc4)nc4[nH]ccc34)cn2)C1` (stereo not drawn) [Compound 29] was run?
A: 4.3 nM

Q: What about the AUC (MHH-CALL-4 cells) of the same molecule?
A: 262

Q: And the “Target Protein Degradation (% remaining at 100 nM, 24 h) JAK1” value (JAK1)?
A: 64 % remaining

Q: And the remaining activity at 0.1 µM (JAK3)?
A: 62%

Q: And the remaining activity at 0.1 µM (GSPT1)?
A: 51%

Q: And the “Target Protein Degradation (% remaining at 100 nM, 24 h) JAK2” value (JAK2)?
A: 14 % remaining

Q: How did the EC50 (MHH-CALL-4 cells) turn out when `CCS(=O)(=O)C1CC(CC#N)(n2cc(-c3nc(Nc4ccc(C(=O)NC5CCN(c6cccc7c6C(=O)N(C6CCC(=O)NC6=O)C7=O)CC5)cc4)nc4[nH]ccc34)cn2)C1` (stereo not drawn) [Compound 30] was run?
A: 0.3 nM

Q: What about the AUC (MHH-CALL-4 cells) of the same molecule?
A: 215.00

Q: And the “Target Protein Degradation (% remaining at 100 nM, 24 h) JAK1” value (JAK1)?
A: 105 % remaining

Q: What about the remaining activity at 0.1 µM (JAK3) of the same molecule?
A: 77%

Q: And the remaining activity at 0.1 µM (GSPT1)?
A: 140%

Q: And the “Target Protein Degradation (% remaining at 100 nM, 24 h) JAK2” value (JAK2)?
A: 88 % remaining

Q: Which EC50 (MHH-CALL-4 cells) does the source give for `CCS(=O)(=O)N1CC(CC#N)(n2cc(-c3nc(Nc4ccc(C(=O)NCC5CCN(c6ccc7c(c6)C(=O)N(C6CCC(=O)NC6=O)C7=O)CC5)cc4)nc4[nH]ccc34)cn2)C1` (stereo not drawn) [Compound 31] here?
A: 2.1 nM

Q: And the AUC (MHH-CALL-4 cells)?
A: 260

Q: And the “Target Protein Degradation (% remaining at 100 nM, 24 h) JAK1” value (JAK1)?
A: 58 % remaining

Q: And the remaining activity at 0.1 µM (JAK3)?
A: 54%

Q: And the remaining activity at 0.1 µM (GSPT1)?
A: 61%

Q: What about the “Target Protein Degradation (% remaining at 100 nM, 24 h) JAK2” value (JAK2) of the same molecule?
A: 18 % remaining

Q: Which EC50 (MHH-CALL-4 cells) does the source give for `CCS(=O)(=O)N1CC(CC#N)(n2cc(-c3nc(Nc4ccc(C(=O)NCCC5CCN(c6ccc7c(c6)C(=O)N(C6CCC(=O)NC6=O)C7=O)CC5)cc4)nc4[nH]ccc34)cn2)C1` (stereo not drawn) [Compound 32] here?
A: 1.3 nM

Q: What about the AUC (MHH-CALL-4 cells) of the same molecule?
A: 251

Q: What about the “Target Protein Degradation (% remaining at 100 nM, 24 h) JAK1” value (JAK1) of the same molecule?
A: 69 % remaining

Q: And the remaining activity at 0.1 µM (JAK3)?
A: 56%

Q: What about the remaining activity at 0.1 µM (GSPT1) of the same molecule?
A: 46%

Q: And the “Target Protein Degradation (% remaining at 100 nM, 24 h) JAK2” value (JAK2)?
A: 21 % remaining

Q: What does the source list for `CCS(=O)(=O)N1CC(CC#N)(n2cc(-c3nc(Nc4ccc(C(=O)NCCCNC(=O)COc5cccc(C6CCC(=O)NC6=O)c5)cc4)nc4[nH]ccc34)cn2)C1` (stereo not drawn) [Compound 33]?
A: EC50 (MHH-CALL-4 cells): 0.7 nM; AUC (MHH-CALL-4 cells): 185; Target Protein Degradation (% remaining at 100 nM, 24 h) JAK1 (JAK1): 83 % remaining; remaining activity at 0.1 µM (JAK3): 71%; remaining activity at 0.1 µM (GSPT1): 89%; Target Protein Degradation (% remaining at 100 nM, 24 h) JAK2 (JAK2): 74 % remaining

Q: What does the source list for `CCS(=O)(=O)N1CC(CC#N)(n2cc(-c3nc(Nc4ccc(C(=O)NCCCCCCCNc5cccc(C6CCC(=O)NC6=O)c5)cc4)nc4[nH]ccc34)cn2)C1` (stereo not drawn) [Compound 34]?
A: EC50 (MHH-CALL-4 cells): 31 nM; AUC (MHH-CALL-4 cells): 210; Target Protein Degradation (% remaining at 100 nM, 24 h) JAK1 (JAK1): 90 % remaining; remaining activity at 0.1 µM (JAK3): 69%; remaining activity at 0.1 µM (GSPT1): 74%; Target Protein Degradation (% remaining at 100 nM, 24 h) JAK2 (JAK2): 71 % remaining
